Consider 22 molecules from patent publication US12636290B2, “BET inhibitors for modulating DUX4 expression in FSHD” (Saint Louis University, priority 2018, dated 2026).

The assay has as its system DUX4 expression (surrogate marker MBD3L2). Kind of assay: Screening: qPCR analysis of DUX4 target gene MBD3L2 in differentiating MB200 FSHD2 muscle cells. Type of assay: cell-based. As to conditions: Homo sapiens, 40 hours, DUX4 expression inferred from surrogate marker MBD3L2 expression (qPCR, normalized to RPL30). How it is done:
Cells and Cell Culture. Primary human myoblast cell lines, immortalized by retroviral transduction of cyclin-dependent kinase 4 (CDK4) and human telomerase reverse transcriptase (hTERT) (Stadler, et al., 2011), were obtained from the Fields Center at the University of Rochester (world-wide-web at urmc.rochester.edu/fields-center.aspx). Immortalized myoblasts were grown in Ham's F-10 Nutrient Mix (Gibco, Waltham, MA, USA) supplemented with 20% HyClone Fetal Bovine Serum (GE Healthcare Life Sciences, Pittsburgh, PA, USA), 100 U/100 μg penicillin/streptomycin (Gibco), 10 ng/ml recombinant human fibroblast growth factor (Promega Corporation, Madison, WI, USA) and 1 μM dexamethasone (Sigma-Aldrich). Differentiation of myoblasts into myotubes was achieved by switching the fully confluent myoblast monolayer into Dulbecco's Modified Eagle Medium (DMEM) (Gibco) containing 1% horse serum (Gibco), 100 U/100 μg penicillin/streptomycin, 10 μg/ml insulin (Sigma-Aldrich) and 10 μg/ml transferrin (Sigma-Aldrich) (HS/IT media) or DMEM:F12 Nutrient Mixture (1:1, Gibco) supplemented with 2% KnockOut Serum Replacement (Gibco), 100 U/100 μg penicillin/streptomycin, 10 μg/ml insulin and 10 μg/ml transferrin (KSR media) for 2-6 days.
Screening: qPCR analysis of DUX4 target genes MBD3L2. For screening compounds, differentiating MB200 FSHD2 muscle cells were exposed to BET inhibitors at a variety of concentrations for 40 hours to determine the effects of the drugs on DUX4 expression. Cell lysates were prepared using Cells-to-Ct Bulk Lysis Reagents (Invitrogen, Waltham, MA, USA). Gene expression was measured by quantitative polymerase chain reaction (qPCR) was carried out on a QuantStudio 5 (Applied Biosystems, Waltham, MA, USA) using TaqMan Gene Expression Assays (Applied Biosystems) and TaqMan Fast Virus 1-Step Master Mix (Invitrogen). The relative expression levels of DUX4 target gene methyl-CpG binding domain protein 3 like 2 (MBD3L2), was normalized to that of the reference gene ribosomal protein L30 (RPL30), which was included in multiplex (two gene) PCR reactions. TaqMan Gene Expression Assay ID numbers: MBD3L2, Hs00544743_m1; RPL30, Hs00265497_m1. Data is expressed as relative expression with the expression in absence of inhibitors set to one.
Analysis of MBD3L2 expression in cultured FSHD2 cells. DUX4 mRNA is present in very low levels, even in differentiating FSHD2 myoblasts, so DUX4 target gene MBD3L2 was used as a surrogate marker of DUX4 expression. FSHD2 patient derived muscle cells were analyzed to determine whether BET inhibitors affect MBD3L2 expression, indicating a reduction in DUX4 expression.

Where two headings read alike, the source gives them in different places.

On to `C[C@@H]1C(=O)N(C)CCN1CCCN1CCN(c2ccc3cc(-c4cn(C)c(=O)c5[nH]ccc45)ccc3n2)CC1` [SLU-2346, (R)-4-{2-[4-(3-(2,4-dimethyl-3-oxopiperazin-1-yl)propyl)piperazin-1-yl]quinolin-6-yl}-6-methyl-1H-pyrrolo[2,3-c]pyridin-7(6H)-one], for which the IC50 was determined as 41 nM (read-out: DUX4* MT FSHD2: IC50) and 41 nM (read-out: DUX4* MT FSHD2 IC50).
Take `C#CCN1CCN(CCOc2ccc(-c3ccc4cc(-c5cn(C)c(=O)c6[nH]ccc56)ccc4n3)cc2)CC1=O` [SLU-2281, 6-methyl-4-{2-[4-(2-(3-oxo-4-(prop-2-yn-1-yl)piperazin-1-yl)ethoxy)phenyl]quinolin-6-yl}-1H-pyrrolo[2,3-c]pyridin-7(6H)-one]: the IC50 is 130 nM (read-out: DUX4* MT FSHD2: IC50) and 130 nM (read-out: DUX4* MT FSHD2 IC50).
Regarding `Cn1cc(-c2ccc(N3CCC4(CCNCC4)C3)nc2)c2cc[nH]c2c1=O` [SLU-2214, 4-[6-(2,8-diazaspiro[4.5]decan-2-yl)pyridin-3-yl]-6-methyl-1H-pyrrolo[2,3-c]pyridin-7(6H)-one], the IC50 is, setting by setting: (read-out: DUX4* MT FSHD2: IC50) 95 nM; (read-out: DUX4* MT FSHD2 IC50) 95 nM.
Take `C[C@H]1CN(C)C(=O)CN1CCOc1ccc(-c2ccc3cc(-c4cn(C)c(=O)c5[nH]ccc45)ccc3n2)cc1` [SLU-2287, (S)-4-{2-[4-(2-(2,4-dimethyl-5-oxopiperazin-1-yl)ethoxy)phenyl]quinolin-6-yl}-6-methyl-1,6-dihydro-7H-pyrrolo[2,3-c]pyridin-7-one]: the IC50 (read-out: DUX4* MT FSHD2: IC50) is 108 nM and the IC50 (read-out: DUX4* MT FSHD2 IC50) was 108 nM.
On to `CC(=O)N1C[C@@H](C)N(CCOc2ccc(-c3ccc4nc(-c5cn(C)c(=O)c6[nH]ccc56)ccc4c3)cc2)[C@@H](C)C1` [SLU-2104, 4-{6-[4-(2-((2R,6S)-4-acetyl-2,6-dimethylpiperazin-1-yl)ethoxy)phenyl]quinolin-2-yl}-6-methyl-1H-pyrrolo[2,3-c]pyridin-7(6H)-one], for which the IC50 (read-out: DUX4* MT FSHD2: IC50) was 43 nM and the half-inhibitory concentration (IC50) (read-out: DUX4* MT FSHD2 IC50) turned out to be 43 nM.
For the molecule `C[C@H]1C(=O)N(C)CCN1CCOc1ccc(-c2ccc3cc(-c4cn(C)c(=O)c5[nH]ccc45)ccc3n2)cc1` [SLU-2236, (S)-4-{2-[4-(2-(2,4-dimethyl-3-oxopiperazin-1-yl)ethoxy)phenyl]quinolin-6-yl}-6-methyl-1H-pyrrolo[2,3-c]pyridin-7(6H)-one], the IC50 by setting is: (read-out: DUX4* MT FSHD2: IC50) 13 nM; (read-out: DUX4* MT FSHD2 IC50) 13 nM.
For the molecule `CCN1CCN(CCOc2ccc(-c3ccc4cc(-c5cn(C)c(=O)c6[nH]ccc56)ccc4n3)cc2)CC1=O` [SLU-2243, 4-{2-[4-(2-(4-ethyl-3-oxopiperazin-1-yl)ethoxy)phenyl]quinolin-6-yl}-6-methyl-1H-pyrrolo[2,3-c]pyridin-7(6H)-one], the IC50 is, setting by setting: (read-out: DUX4* MT FSHD2: IC50) 110 nM; (read-out: DUX4* MT FSHD2 IC50) 110 nM.
Regarding `Cn1cc(-c2ccc(N3CCC4(CCN(C(=O)CO)CC4)CC3)nc2)c2cc[nH]c2c1=O` [SLU-2115, 4-{6-[9-(2-hydroxyacetyl)-3,9-diazaspiro[5.5]undecan-3-yl]pyridin-3-yl}-6-methyl-1H-pyrrolo[2,3-c]pyridin-7(6H)-one], the IC50 came to 97 nM (read-out: DUX4* MT FSHD2: IC50) and 97 nM (read-out: DUX4* MT FSHD2 IC50).
Take `C[C@@H]1C(=O)N(C)CCN1CCOc1ccc(C2CCN(c3ncc(-c4cn(C)c(=O)c5[nH]ccc45)cn3)CC2)cc1` [SLU-2091, (R)-4-{2-[4-(4-(2-(2,4-dimethyl-3-oxopiperazin-1-yl)ethoxy)phenyl)piperidin-1-yl]pyrimidin-5-yl}-6-methyl-1H-pyrrolo[2,3-c]pyridin-7(6H)-one]: the IC50 runs as follows: (read-out: DUX4* MT FSHD2: IC50) 20 nM; (read-out: DUX4* MT FSHD2 IC50) 20 nM.
Take `COc1ccc(C2CCN(c3ccc(-c4cn(C)c(=O)c5[nH]ccc45)cn3)CC2)cc1` [SLU-2108, 4-{6-[4-(4-methoxyphenyl)piperidin-1-yl]pyridin-3-yl}-6-methyl-1H-pyrrolo[2,3-c]pyridin-7(6H)-one]: the IC50 is, setting by setting: (read-out: DUX4* MT FSHD2: IC50) 280 nM; (read-out: DUX4* MT FSHD2 IC50) 280 nM.
On to `C[C@@H]1C(=O)N(C)CCN1CCOc1ccc2nc(-c3ccc(-c4cn(C)c(=O)c5[nH]ccc45)cc3)ccc2c1` [SLU-2211, (R)-4-{4-[6-(2-(2,4-dimethyl-3-oxopiperazin-1-yl)ethoxy)quinolin-2-yl]phenyl}-6-methyl-1H-pyrrolo[2,3-c]pyridin-7(6H)-one], for which the IC50 is 62 nM (read-out: DUX4* MT FSHD2: IC50) and 62 nM (read-out: DUX4* MT FSHD2 IC50).
For `C[C@@H]1C(=O)N(C)CCN1CCCOc1ccc2cc(-c3cn(C)c(=O)c4[nH]ccc34)ccc2n1` [SLU-2347, (R)-4-{2-[3-(2,4-dimethyl-3-oxopiperazin-1-yl)propoxy]quinolin-6-yl}-6-methyl-1H-pyrrolo[2,3-c]pyridin-7(6H)-one], the IC50 by setting is: (read-out: DUX4* MT FSHD2: IC50) 85 nM; (read-out: DUX4* MT FSHD2 IC50) 85 nM.
Regarding `Cn1cc(-c2ccc(N3CCC(c4ccc(OCCN5CCCCC5)cc4)CC3)nc2)c2cc[nH]c2c1=O` [SLU-2116, 6-methyl-4-{6-[4-(4-(2-(piperidin-1-yl)ethoxy)phenyl)piperidin-1-yl]pyridin-3-yl}-1H-pyrrolo[2,3-c]pyridin-7(6H)-one], the IC50 by setting is: (read-out: DUX4* MT FSHD2: IC50) 270 nM; (read-out: DUX4* MT FSHD2 IC50) 270 nM.
As for `Cn1cc(-c2ccc(N3CCC4(CCN(C(=O)CO)C4)CC3)nc2)c2cc[nH]c2c1=O` [SLU-2127], the IC50 turned out to be 37 nM (read-out: DUX4* MT FSHD2: IC50) and 37 nM (read-out: DUX4* MT FSHD2 IC50).
Regarding `CN1CCN(CCOc2ccc(C3CCN(c4ccc(-c5cn(C)c(=O)c6[nH]ccc56)cn4)CC3)cc2)CC1` [SLU-2114, 6-methyl-4-{6-[4-(4-(2-(4-methylpiperazin-1-yl)ethoxy)phenyl)piperidin-1-yl]pyridin-3-yl}-1H-pyrrolo[2,3-c]pyridin-7(6H)-one], the IC50 reads like this: (read-out: DUX4* MT FSHD2: IC50) 330 nM; (read-out: DUX4* MT FSHD2 IC50) 330 nM.
Turning to `COc1cc(-c2ccc(OCCN3CCN(C)C(=O)[C@H]3C)cc2)ccc1-c1cn(C)c(=O)c2[nH]ccc12` [SLU-2102, (R)-4-{4′-[2-(2,4-dimethyl-3-oxopiperazin-1-yl)ethoxy]-3-methoxy-[1,1′-biphenyl]-4-yl}-6-methyl-1H-pyrrolo[2,3-c]pyridin-7(6H)-one], the IC50 was 130 nM (read-out: DUX4* MT FSHD2: IC50) and 130 nM (read-out: DUX4* MT FSHD2 IC50).
Consider `C[C@@H]1C(=O)N(C)CCN1CCCOc1cccc(-c2ccc3cc(-c4cn(C)c(=O)c5[nH]ccc45)ccc3n2)c1` [SLU-2292, (R)-4-{2-[3-(3-(2,4-dimethyl-3-oxopiperazin-1-yl)propoxy)phenyl]quinolin-6-yl}-6-methyl-1H-pyrrolo[2,3-c]pyridin-7(6H)-one], for which the IC50 reads like this: (read-out: DUX4* MT FSHD2: IC50) 25 nM; (read-out: DUX4* MT FSHD2 IC50) 25 nM.
As to `CN1CCN(CCOc2ccc(-c3ccc4nc(-c5cn(C)c(=O)c6[nH]ccc56)ccc4c3)cc2)C(C)(C)C1=O` [SLU-2280, 6-methyl-4-{6-[4-(2-(2,2,4-trimethyl-3-oxopiperazin-1-yl)ethoxy)phenyl]quinolin-2-yl}-1H-pyrrolo[2,3-c]pyridin-7(6H)-one], the IC50 by setting is: (read-out: DUX4* MT FSHD2: IC50) 120 nM; (read-out: DUX4* MT FSHD2 IC50) 120 nM.
On to `CCN1CCN(CCOc2ccc(-c3ccc4cc(-c5cn(C)c(=O)c6[nH]ccc56)ccc4n3)cc2)[C@H](C)C1=O` [SLU-2611, (R)-4-{2-[4-(2-(4-ethyl-2-methyl-3-oxopiperazin-1-yl)ethoxy)phenyl]quinolin-6-yl}-6-methyl-1H-pyrrolo[2,3-c]pyridin-7(6H)-one], for which the IC50 was found to be 41 nM (read-out: DUX4* MT FSHD2: IC50) and 41 nM (read-out: DUX4* MT FSHD2 IC50).
Take `Cn1cc(-c2ccc(N3CCC(c4ccc(OCCN5CCOCC5)cc4)CC3)nc2)c2cc[nH]c2c1=O` [SLU-2118, 6-methyl-4-{6-[4-(4-(2-morpholinoethoxy)phenyl)piperidin-1-yl]pyridin-3-yl}-1H-pyrrolo[2,3-c]pyridin-7(6H)-one]: the IC50 reads like this: (read-out: DUX4* MT FSHD2: IC50) 261 nM; (read-out: DUX4* MT FSHD2 IC50) 261 nM.
For `Cn1cc(-c2ccc3cc(-c4ccc(OCCN5CCOCC5)cc4)ccc3n2)c2cc[nH]c2c1=O` [SLU-2278, 6-methyl-4-{6-[4-(2-morpholinoethoxy)phenyl]quinolin-2-yl}-1,6-dihydro-7H-pyrrolo[2,3-c]pyridin-7-one], the half-inhibitory concentration (IC50) is 120 nM (read-out: DUX4* MT FSHD2: IC50) and 120 nM (read-out: DUX4* MT FSHD2 IC50).
For the molecule `Cn1cc(-c2ccc(N3CCC4(CCNC4)CC3)nc2)c2cc[nH]c2c1=O` [SLU-2120, 4-[6-(2,8-diazaspiro[4.5]decan-8-yl)pyridin-3-yl]-6-methyl-1H-pyrrolo[2,3-c]pyridin-7(6H)-one], the IC50 is, setting by setting: (read-out: DUX4* MT FSHD2: IC50) 350 nM; (read-out: DUX4* MT FSHD2 IC50) 350 nM.
